The experiment addresses EGFR (UniProt P00533).

This passage reports IC50 results from the Kinase Knowledgebase extract (Sharma et al. 2016).

EGFR, sequence (P00533 whole entry, looked up): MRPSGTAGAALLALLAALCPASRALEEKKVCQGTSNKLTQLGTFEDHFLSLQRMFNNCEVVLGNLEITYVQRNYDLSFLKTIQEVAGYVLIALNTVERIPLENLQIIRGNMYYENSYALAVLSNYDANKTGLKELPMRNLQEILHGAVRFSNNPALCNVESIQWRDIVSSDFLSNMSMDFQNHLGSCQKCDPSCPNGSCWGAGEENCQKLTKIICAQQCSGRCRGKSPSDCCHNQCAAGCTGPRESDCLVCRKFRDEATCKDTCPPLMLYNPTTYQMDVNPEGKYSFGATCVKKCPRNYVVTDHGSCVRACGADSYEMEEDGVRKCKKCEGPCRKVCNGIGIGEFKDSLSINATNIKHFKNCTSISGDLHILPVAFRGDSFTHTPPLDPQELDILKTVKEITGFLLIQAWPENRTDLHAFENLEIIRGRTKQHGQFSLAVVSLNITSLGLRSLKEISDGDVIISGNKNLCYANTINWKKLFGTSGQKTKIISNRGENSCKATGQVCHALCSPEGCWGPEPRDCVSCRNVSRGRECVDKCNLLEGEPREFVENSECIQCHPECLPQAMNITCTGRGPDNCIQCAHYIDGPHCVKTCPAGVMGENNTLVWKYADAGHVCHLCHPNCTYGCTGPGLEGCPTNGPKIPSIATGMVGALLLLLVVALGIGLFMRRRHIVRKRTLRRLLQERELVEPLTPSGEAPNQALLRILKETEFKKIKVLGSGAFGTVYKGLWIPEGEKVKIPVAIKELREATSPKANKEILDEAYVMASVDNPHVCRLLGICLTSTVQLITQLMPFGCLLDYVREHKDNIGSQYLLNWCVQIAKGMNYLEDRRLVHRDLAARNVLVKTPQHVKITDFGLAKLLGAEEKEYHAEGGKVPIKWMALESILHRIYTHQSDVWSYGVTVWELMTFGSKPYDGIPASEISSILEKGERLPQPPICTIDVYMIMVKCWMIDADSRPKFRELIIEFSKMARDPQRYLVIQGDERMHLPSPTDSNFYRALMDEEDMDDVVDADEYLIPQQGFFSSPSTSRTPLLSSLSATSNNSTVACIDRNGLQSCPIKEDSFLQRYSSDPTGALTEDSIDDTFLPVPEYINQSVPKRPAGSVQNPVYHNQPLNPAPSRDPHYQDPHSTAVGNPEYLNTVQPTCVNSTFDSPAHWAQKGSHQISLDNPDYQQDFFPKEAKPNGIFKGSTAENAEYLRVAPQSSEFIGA

`C=CC(=O)Nc1cc2c(Nc3ccc(Br)c(Cl)c3F)ncnc2cc1OCCNC(=O)CCCN(C)C` displayed a half-inhibitory concentration (IC50) of 28 nM.

Turning to `C=CC(=O)NCCCNc1cc2c(Nc3ccc(Br)cc3F)ncnc2cc1OCC1CCN(C)CC1`, the IC50 stood at 11 nM.

Turning to `C=CC(=O)Nc1cc2c(Nc3ccc(Br)cc3F)ncnc2cc1OCCOC(=O)CC(=O)OCC`, the IC50 came out at 246 nM.

Take `C=CC(=O)NCCCNc1cc2c(Nc3ccc(Br)cc3F)ncnc2cc1OCC1CCN(C(=O)C=C)CC1`: the IC50 turned out to be 68 nM.

`C=CC(=O)NCCCNc1cc2c(Nc3ccc(F)c(F)c3F)ncnc2cc1OCC1CCN(C)CC1` had an IC50 of 12 nM.

As to `C=CC(=O)NCCCNc1cc2c(Nc3ccc(Br)cc3F)ncnc2cc1OCC1CCN(C(=O)CC)CC1`, the IC50 came out at 56 nM.

Consider `C=CC(=O)Nc1cc2c(Nc3ccc(Br)cc3F)ncnc2cc1OCCOC(=O)CC(=O)O`, for which the IC50 is 956 nM.

Turning to `C=CC(=O)NCCNc1cc2c(Nc3ccc(Br)cc3F)ncnc2cc1OCC1CCN(C)CC1`, the IC50 was 76 nM.

`C=CC(=O)NCCC(=O)Nc1cc2c(Nc3ccc(Br)cc3F)ncnc2cc1OCC1CCN(C)CC1` gave an IC50 of 80 nM. This IC50 and that of the compound before are within 1.5-fold of each other.

For `C=CC(=O)Nc1cc2c(Nc3ccc(Br)cc3F)ncnc2cc1OCC(=O)NCCN(C)C`, the IC50 was determined as 652 nM.

Take `C=CC(=O)NCCCNc1cc2c(Nc3ccc(Br)cc3F)ncnc2cc1OCC1CCN(C(C)=O)CC1`: the IC50 came out at 35 nM.

`C=CC(=O)Nc1cc2c(Nc3ccc(Br)cc3F)ncnc2cc1OCCNC(=O)CCC`: the IC50 stood at 32 nM.

Regarding `C=CC(=O)Nc1cc2c(Nc3ccc(Br)cc3F)ncnc2cc1OCCNC(=O)CCCN(C)C`, the IC50 came out at 21 nM. Against the preceding compound, the IC50 is about 1.5-fold lower.

`C=CC(=O)Nc1cc2c(Nc3ccc(Br)cc3F)ncnc2cc1OCCNC(=O)CC(C)N(C)C` (stereo not given) came in with an IC50 of 325 nM. This IC50 is about 15-fold higher than that of the compound before.

`C=CC(=O)Nc1cc2c(Nc3ccc(Br)c(F)c3F)ncnc2cc1OCCNC(=O)CCCN(C)C` displayed an IC50 of 568 nM.

Usually IC50 stands for the concentration needed to halve the response being measured. Low readings indicate higher potency, high ones lower potency.
